Test systems include A498; SN12C; SF-295; HCT-116; MDA-MB-435; EKVX; COLO 205; NCI/ADR-RES; OVCAR-4; NCI-H23; SK-MEL-5; MCF7; Hs-578T; HOP-92; BT-549; MDA-N; ACHN; T47D; SK-MEL-2; KM12.
Holding throughout (experiment): NCI anticancer screen, dose series, 48 h

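Following 48 hours of exposure in 96-well plates, responses at five concentrations were used to interpolate endpoints linearly. GI50 = concentration required for 50% inhibition of growth.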 The source made the active and inactive calls. Rule as the data show it: active = GI50 up to about 1.1 µM and inactive = higher.

Regarding `CN(C)CCNc1ccc2c(=O)n(CCN(C)C)c(=O)n3c4ccc(O)cc4c(=O)c1c23`, the GI50 was 0.0611 µM (active) with A498; 0.0103 µM (active) in the experiment on SN12C; < 0.01 µM (active) in the experiment on SF-295; < 0.01 µM (active) in the experiment on HCT-116; 0.0711 µM (active) in the experiment with MDA-MB-435; 0.183 µM (active) with EKVX. For the same molecule, the GI50 with COLO 205 is 0.0327 µM (active); with NCI/ADR-RES, 0.546 µM (active); with OVCAR-4, 0.106 µM (active); in the experiment with NCI-H23 it was < 0.01 µM (active); in the experiment on SK-MEL-5, < 0.0115 µM (active); with MCF7, < 0.01 µM (active). In addition, the GI50 in the experiment on Hs-578T was 0.161 µM (active); in the experiment with HOP-92, < 0.01 µM (active); with BT-549, 0.292 µM (active); with MDA-N, 0.0356 µM (active); in the experiment with ACHN it was < 0.01 µM (active); in the experiment on T47D, < 0.0165 µM (active). The GI50 is 0.226 µM (active) with SK-MEL-2 and 0.122 µM (active) with KM12.

As for `Cc1cccc2nc3cccc(C(=O)NCCC[N+](C)(CCCNC(=O)c4cccc5nc6cccc(C)c6nc45)Cc4c([N+](=O)[O-])ncn4C)c3nc12`, the GI50 in the experiment on A498 is 0.979 µM (active); in the experiment with SN12C, 0.378 µM (active); with SF-295 it was 1.35 µM (inactive); with HCT-116, 1.4 µM (inactive); in the experiment with MDA-MB-435, 5.13 µM (inactive); in the experiment with EKVX, 1.79 µM (inactive). The GI50 in the experiment with COLO 205 was 0.705 µM (active); in the experiment on NCI/ADR-RES, 38.6 µM (inactive); with OVCAR-4, 29 µM (inactive); in the experiment on NCI-H23, 1.53 µM (inactive); with SK-MEL-5 it was 1.95 µM (inactive); in the experiment on MCF7, 0.436 µM (active). In addition, the GI50 with Hs-578T is > 1100 µM (inactive); in the experiment on HOP-92, 23.9 µM (inactive); in the experiment with BT-549, 41.7 µM (inactive); in the experiment on MDA-N, 0.293 µM (active); in the experiment on ACHN, 0.136 µM (active); with T47D, 21.9 µM (inactive). Besides, the figures for the GI50 with SK-MEL-2 and in the experiment on KM12 were 6.95 µM (inactive) and 0.0912 µM (active), respectively.

Turning to `O=C1C2CC=CCC2C(=O)N1n1c(-c2ccccc2)n[nH]c1=O` (stereo unspecified), the GI50 with A498, with SN12C, with SF-295, in the experiment on HCT-116, with MDA-MB-435 and with EKVX was > 100 µM (inactive) throughout. In addition, the GI50 in the experiment with COLO 205, with NCI/ADR-RES, in the experiment on OVCAR-4, in the experiment on NCI-H23, in the experiment on SK-MEL-5 and in the experiment with MCF7 was > 100 µM (inactive) each time. Further, the GI50 with Hs-578T, in the experiment on HOP-92, in the experiment with BT-549, in the experiment on MDA-N, with ACHN and with T47D was > 100 µM (inactive) in each case. Also, the GI50 with SK-MEL-2 and in the experiment with KM12 was > 100 µM (inactive) each time.

Regarding `CN(C)c1ccc(C(=NNC(=O)c2cc3ccccc3[nH]2)c2ccc(N(C)C)cc2)cc1`, the GI50 is 1.05 µM (active) in the experiment with A498; 1.35 µM (inactive) in the experiment on SN12C; 0.303 µM (active) with SF-295; 0.422 µM (active) with HCT-116; 0.024 µM (active) with MDA-MB-435; 1.85 µM (inactive) in the experiment on EKVX. Further, the GI50 is 0.305 µM (active) in the experiment with COLO 205; 0.177 µM (active) in the experiment with NCI/ADR-RES; 2.73 µM (inactive) with OVCAR-4; 0.912 µM (active) in the experiment on NCI-H23; 0.407 µM (active) in the experiment on SK-MEL-5; 0.245 µM (active) in the experiment with MCF7. In addition, the GI50 in the experiment with Hs-578T is 0.359 µM (active); with HOP-92, 3.22 µM (inactive); in the experiment on BT-549 it was 3.69 µM (inactive); with MDA-N, 0.0388 µM (active); in the experiment on ACHN it was 1.1 µM (active); in the experiment on T47D, > 23.8 µM (inactive). Also, the GI50 was 0.171 µM (active) in the experiment with SK-MEL-2 and 0.33 µM (active) with KM12.

For `Cn1c(-c2ccc(/N=N/Nc3ccc(-c4n[nH]c(=S)n4C)cc3)cc2)n[nH]c1=S`, the GI50 in the experiment on A498 was 24.9 µM (inactive); in the experiment with SN12C, > 100 µM (inactive); in the experiment on SF-295 it was 18.3 µM (inactive); with HCT-116, 25.7 µM (inactive); in the experiment on MDA-MB-435, > 100 µM (inactive); in the experiment with EKVX, 20.6 µM (inactive). Moreover, the GI50 with COLO 205 is 56 µM (inactive); with NCI/ADR-RES, > 100 µM (inactive); in the experiment on OVCAR-4, > 100 µM (inactive); with NCI-H23, 7.8 µM (inactive); in the experiment on SK-MEL-5, 3.01 µM (inactive); in the experiment with MCF7, 12.1 µM (inactive). The GI50 with Hs-578T is 32.1 µM (inactive); in the experiment on HOP-92, 2.91 µM (inactive); with BT-549 it was 3.9 µM (inactive); with MDA-N it was > 100 µM (inactive); with ACHN it was 1.99 µM (inactive); with T47D, 1.94 µM (inactive). In addition, the GI50 in the experiment with SK-MEL-2 was 5.7 µM (inactive).

In the case of `COc1ccc(NC(=O)CC(=O)n2nc(C)c(/N=N/c3cccc(C)c3)c2C)cc1`, the GI50 with A498 was 56.6 µM (inactive); in the experiment on SN12C it was > 100 µM (inactive); with SF-295, > 100 µM (inactive); in the experiment with HCT-116, > 100 µM (inactive); in the experiment on MDA-MB-435, > 100 µM (inactive); in the experiment on EKVX, 31.4 µM (inactive). The GI50 with COLO 205, in the experiment on NCI/ADR-RES, with OVCAR-4, with NCI-H23, in the experiment on SK-MEL-5 and in the experiment on MCF7 was > 100 µM (inactive) throughout. Further, the GI50 in the experiment on Hs-578T is > 100 µM (inactive); in the experiment with HOP-92 it was 69.8 µM (inactive); with BT-549, > 100 µM (inactive); in the experiment on MDA-N, > 100 µM (inactive); in the experiment with ACHN it was > 100 µM (inactive); in the experiment on T47D it was > 100 µM (inactive). Also, the GI50 in the experiment on SK-MEL-2 and in the experiment with KM12 was > 100 µM (inactive) in each case.

For `COc1cccc2c1C(=O)c1c(O)c3c(c(O)c1C2=O)C[C@@](O)(C(C)=O)CC3OC1CC(OC2CC(N)C(O)C(C)O2)C(O)C(C)O1` (stereo partly specified), the GI50 is > 100 µM (inactive) in the experiment on A498; 36.9 µM (inactive) in the experiment with SN12C; 49 µM (inactive) in the experiment on SF-295; 29.4 µM (inactive) in the experiment on HCT-116; 56.2 µM (inactive) with MDA-MB-435; > 100 µM (inactive) in the experiment on EKVX. Also, the GI50 with COLO 205 was 74.6 µM (inactive); with NCI/ADR-RES, > 100 µM (inactive); in the experiment with OVCAR-4, > 100 µM (inactive); with NCI-H23, 34.9 µM (inactive); in the experiment on SK-MEL-5, 35.7 µM (inactive); in the experiment on MCF7 it was 7.66 µM (inactive). The GI50 in the experiment on Hs-578T is > 48.4 µM (inactive); with HOP-92, 31.3 µM (inactive); with BT-549, 32.5 µM (inactive); in the experiment on MDA-N, 68.1 µM (inactive); with ACHN, 38.7 µM (inactive); in the experiment on T47D, 37.9 µM (inactive). Besides, the GI50 in the experiment on SK-MEL-2 was 67.6 µM (inactive); with KM12 it was 35.8 µM (inactive).

On to `COc1cc2c(cc1C)NC(=O)/C2=C/c1c(Cl)[nH]c2ccccc12`, for which the GI50 in the experiment with A498 was 4.57 µM (inactive); in the experiment on SN12C it was 5.3 µM (inactive); in the experiment on SF-295, 1.77 µM (inactive); in the experiment on HCT-116, 4.89 µM (inactive); with MDA-MB-435, 1.62 µM (inactive); in the experiment on EKVX it was 6.68 µM (inactive). Besides, the GI50 in the experiment on COLO 205 was 2.92 µM (inactive); in the experiment with NCI/ADR-RES, 2.62 µM (inactive); with NCI-H23, 10.1 µM (inactive); in the experiment with SK-MEL-5 it was 3.15 µM (inactive); in the experiment with MCF7 it was 3.8 µM (inactive); in the experiment on Hs-578T, 3.26 µM (inactive). The GI50 in the experiment on HOP-92 was 11.2 µM (inactive); in the experiment on BT-549 it was 2.74 µM (inactive); with MDA-N, 1.63 µM (inactive); in the experiment with ACHN, 10.6 µM (inactive); in the experiment on T47D, 5.61 µM (inactive); in the experiment on SK-MEL-2, 2.8 µM (inactive). In addition, the GI50 in the experiment with KM12 is 3.1 µM (inactive).

On to `O=Cc1cc2c(o1)C(=O)c1ccccc1C2=O`, for which the GI50 was 4.78 µM (inactive) with A498; 0.279 µM (active) with SN12C; 0.367 µM (active) in the experiment on SF-295; 0.312 µM (active) in the experiment with HCT-116; 0.197 µM (active) in the experiment with MDA-MB-435; 2.58 µM (inactive) with EKVX. The GI50 was 1.44 µM (inactive) in the experiment with COLO 205; 1.81 µM (inactive) in the experiment with NCI/ADR-RES; 1.17 µM (inactive) in the experiment with OVCAR-4; 0.191 µM (active) in the experiment on NCI-H23; 0.233 µM (active) with SK-MEL-5; 0.213 µM (active) in the experiment with MCF7. The GI50 with Hs-578T is 0.251 µM (active); in the experiment with HOP-92 it was 1.83 µM (inactive); in the experiment on BT-549, 0.757 µM (active); in the experiment with MDA-N, 0.192 µM (active); with ACHN, 1.98 µM (inactive); with T47D, 1.72 µM (inactive). Besides, the results for the GI50 in the experiment on SK-MEL-2 and in the experiment on KM12 were 0.601 µM (active) and 1.07 µM (active), respectively.

Regarding `O=C1Cc2c([nH]c3ccc(C(=O)O)cc23)-c2ccccc2N1`, the GI50 with A498, with SN12C, in the experiment on SF-295, in the experiment on HCT-116, with MDA-MB-435 and in the experiment with COLO 205 was > 100 µM (inactive) throughout. The GI50 with NCI/ADR-RES, in the experiment with OVCAR-4, with NCI-H23, in the experiment on MCF7, in the experiment on Hs-578T and in the experiment on HOP-92 was > 100 µM (inactive) in each case. In addition, the GI50 in the experiment with BT-549, in the experiment on MDA-N, in the experiment with ACHN, with T47D, in the experiment on SK-MEL-2 and in the experiment on KM12 was > 100 µM (inactive) in each case.
